# “Also recorded” adds a separate entry of the source. Where a SMILES comes first, the peptide text is derived from it. The star is where a group is joined. Cbz = O=C(OCc1ccccc1)*; CHN2 = [N-]=[N+]=C*; tBu = CC(C)(C)*
# Legend:
# [1] = system: RSV G protein cleavage in Vero cells; test: Cell-surface RSV G protein cleavage in rgRSV-infected cells treated with protease inhibitors (biotinylation, immunoblot with mAb L9); type: cell-based; conditions: RSV-infected HeLa and Vero cells; 0.1 to 100 μM at 6 hpi; 24 hpi
# Method: To elucidate the class of protease responsible for G protein cleavage in Vero cells, cells were treated with increasing concentrations of protease inhibitors after inoculating with recombinant green fluorescent protein expressing RSV (rgRSV). Cells were incubated with rgRSV for 2 h with tipping at 37° C. before replacing inoculum with fresh cell culture medium. Drugs were added at different times post infection. In each case, uninfected, no drug, and vehicle (at the highest concentration used) were included in all experiments as controls. In all experiments at 24 hpi, cell surface proteins were biotinylated, cells lysed and equivalent amounts of protein from each sample were mixed with streptavidin beads.
# Aprotinin, a serine protease inhibitor, leupeptin, a serine/cysteine protease inhibitor; or E-64, a cysteine protease inhibitor were added to the cell culture media (3.125 to 50 μg/ml) from 2-24 hpi. The most likely proteins to be incorporated into the virions are cell surface proteins, so the cell surfaced was biotinylated, proteins isolated from lysed cells with streptavidin beads, and immunobloted with L9, a mAb to the G protein, as a probe (FIG. 1A). In the untreated and vehicle treated samples most of the cell surface G protein was cleaved (˜55 kDa), leaving only a small portion of full length (˜90 kDa) G protein. […] Since both leupeptin and E64 block the activity of cysteine proteases, the protease responsible for cleavage of the G protein in Vero cells is a cysteine protease.
# To narrow the field of cysteine proteases, cells were treated at 6 hpi with a more specific cysteine protease inhibitor, ALLM (0.1 to 100 μM).
# RSV-infected HeLa and Vero cells were treated with a cathepsin B inhibitor, CA-074 (0.1 to 100 μM), or a cathepsin L inhibitor, cathepsin L inhibitor III (0.1 to 100 μM) 6 hpi.
# Cathepsin L is a protease present primarily in the interior of the lysosome and is optimally active at acidic pH. Vero cells expressing the G protein were treated with chloroquine to raise the pH of the lysosome. […] To generate FIG. 4C, cells were inoculated with RSV or mock inoculated. 6 hpi the cells were treated with increasing concentrations of chloroquine. 24 hpi cells were biotinylated and G protein assayed
# HeLa and Vero cells were rgRSV (MOI: 1) or mock inoculated. 2 hpi the inoculum was replaced with fresh complete medium, and 4 hpi cells the medium was changed again to complete medium with 2-fold dilutions of these protease inhibitors (Sigma-Aldrich, St. Louis, Mo.), dissolved in water: Aprotinin (3.125 to 50 μg/ml); Leupeptin (6.25 to 100 μg/ml); E-64 (6.25 to 100 μg/ml); or equal volumes of water in medium. In other experiments, cells were treated at 6 hpi with: 10-fold dilutions (0.1 to 100 μM) of: Cathepsin inhibitor I (Calbiochem); ALLM (Santa Cruz, Dallas, Tex.); Chloroquine diphosphate salt (Sigma Aldrich) or equivalent volumes of vehicle (water); CA-074 (Calbiochem); Cathepsin L inhibitor III (Calbiochem); or an equal volume of vehicle (DMSO) in medium.
# At 24 hpi cells were biotinylated with Ez-link Sulfo-NHS-LC-Biotin (Thermo Fisher). Cells were lysed with lysis buffer containing 150 mM NaCl, 1% Triton X-100, 50 mM Tris, 0.1% SDS, and 1× Halt protease cocktail inhibitor (Thermo Fisher). Proteins were quantified using BCA protein assay kit (Pierce, Waltham, Mass.), and equal amounts of protein were added to high capacity streptavidin agarose beads (Thermo Fisher). The mixtures were rotated for 1 h at 4° C., the beads were pelleted and washed with lysis buffer (without protease cocktail inhibitor), NuPage LDS sample buffer was added, and boiled for 5 min, separated by NuPAGE Novex 4-12% bis-tris protein gels and transferred to nitrocellulose in an iBlot transfer stack, using the iBlot transferring system (Life Technologies) for immunoblot analysis. […]
# [2] = system: G protein from Vero cell virions; test: Virion-associated G protein of rgRSV grown in Vero cells with cathepsin L inhibitor (immunoblot); type: cell-based; conditions: for virion-associated G protein cleavage: rgRSV grown in Vero cells, 0.5 μM inhibitor at 7 hpi, harvested 72 hpi
# Method: To verify that cathepsin L is sufficient to cleave the G protein, rgRSV was grown in Vero cells in the presence of cathepsin L inhibitor or vehicle. Viruses were harvested and pelleted through a 35% sucrose cushion to separate them from cathepsin L inhibitor. Viruses were resuspended in buffer with pH5.5 and treated with cathepsin L or vehicle. […] Vero cells were inoculated with rgRSV or mock inoculated for 2 h, at which time the inoculum was replaced with fresh medium. Vero cells were treated with medium containing 0.5 μM cathepsin L inhibitor III at 7 hpi. 72 hpi the medium was harvested and virus was pelleted through a 35% sucrose cushion. The pelleted Vero-derived (VeD) virus was resuspended in buffer (pH5.5) containing 50 ng/d cathepsin L or vehicle.
# (§1) At 72 hpi the medium was collected and virus pelleted through a 35% sucrose cushion to partially purify and concentrate it. The virus pellet was resuspended and half was further purified by linear sucrose density gradient. The G protein from these purified virions was analyzed by immunoblot. The G protein from HeLa cell virions migrated at 90 kDa and was not affected by the inhibitor (FIG. 5A). […] FIG. 5A was generated by inoculating HeLa or Vero cells for 2 h and treating them with cathepsin L inhibitor or DMSO beginning at 8 hpi.
# The effect of protease inhibitors on the infectivity of RSV produced by Vero and HeLa cells was tested by inoculating cells and 2 hpi media was changed. At 7 hpi medium containing […] cathepsin L inhibitor III (Calbiochem, San Diego, Calif.) or an equal volume of the vehicle, DMSO was added to the cells. […] Fractions containing virus were separated by SDS-PAGE and G protein detected by immunoblot using a mAb, L9 (Edward Walsh, University of Rochester).
# [3] = system: G protein from HeLa cell virions; test: Virion-associated G protein of rgRSV grown in HeLa cells with cathepsin L inhibitor (immunoblot); type: cell-based; conditions: inhibitor beginning at 8 hpi; virus collected 72 hpi; G migrated at 90 kDa
# Method: as §1
# The effect of protease inhibitors on the infectivity of RSV produced by Vero and HeLa cells was tested by inoculating cells and 2 hpi media was changed. At 7 hpi medium containing […] cathepsin L inhibitor III (Calbiochem, San Diego, Calif.) or an equal volume of the vehicle, DMSO was added to the cells. 72 hpi virus was harvested as described above, but instead of aliquoting and snap freezing, 15 ml of virus-containing medium was layered on top of 15 ml of 35% sucrose cushion in 1× Hanks Balanced Salt Solution, with calcium and magnesium, and centrifuged overnight at 4° C. and 26,000×g in an F14-14×50cy rotor for Sorvall Lynx 6000 (Thermo Fisher) to remove the drug and partially purify the virus. […] Fractions containing virus were separated by SDS-PAGE and G protein detected by immunoblot using a mAb, L9 (Edward Walsh, University of Rochester).
# HAE cultures = test: Infection of HAE cultures by rgRSV produced in the presence of cathepsin L inhibitor; type: cell-based, human
# Method: as §1
# The remaining virus that had been partially purified through the 35% sucrose cushion was titrated on HeLa cells. Equivalent amounts of infectious virus, determined on HeLa cells, were used to inoculate HAE cultures. […] For FIG. 5B, equivalent amount of infectious virus, determined by titration on HeLa cells, was used to inoculate HAE cultures. 48 hpi green cells were counted. *p<0.0001 (unpaired, 2-tailed t-test).
# Primary, well-differentiated human airway epithelial (HAE) cultures were generated from human airway tissue (Fulcher et al., Methods Mol Med (2005) 107:183-206). For infection experiments they were grown on collagen coated Trans-well inserts (Corning Incorporated). […]
# The effect of protease inhibitors on the infectivity of RSV produced by Vero and HeLa cells was tested by inoculating cells and 2 hpi media was changed. […] Fractions containing virus were separated by SDS-PAGE and G protein detected by immunoblot using a mAb, L9 (Edward Walsh, University of Rochester).
# The apical surface of well-differentiated HAE cultures in Trans-wells was washed with DPBS for 2 h and the basal medium changed before equivalent pfu (titrated in HeLa cells), between 2,000 and 10,000 pfu, depending on the HAE culture source, were diluted in HAE medium and added to the apical chamber of the Trans-well. […] Fluorescent (green) cells were visualized with an EVOS fl inverted fluorescence microscope (Life Technologies) and counted in HeLa cultures at 24 hpi and on HAE cultures at 48 hpi. Three or more experiments were pooled and analyzed together.
structure (smiles),measurement,setting,value
CC(C)(C)Oc1ccc(C[C@H](NC(=O)[C@H](Cc2ccccc2)NC(=O)OCc2ccccc2)C(=O)C=[N+]=[N-])cc1 [cathepsin L inhibitor III] (Cbz-Phe-Tyr(tBu)-CHN2),G protein cleavage (cell surface G protein),[1],prevention of cleavage; also recorded: almost completely prevented G protein cleavage
same,migration of G protein from Vero cell virions,"[2]; inhibitor beginning at 8 hpi, virus collected 72 hpi, without inhibitor primarily 55 kDa",converted to 90 kDa
same,virion-associated G protein cleavage,[2],cleavage is prevented
same,virion-associated G protein cleavage,[2]; listed as cathepsin L inhibitor,cleavage prevention
same,migration of G protein from HeLa cell virions,[3],not affected
same,ability of Vero-derived virus to infect HAE cells,HAE cultures; inhibitor present during viral production,increasing the ability of Vero-derived virus to infect HAE cells
same,effect on ability of HeLa grown virus to infect HAE cultures,"HAE cultures; inhibitor present during virus production in HeLa, green cells counted 48 hpi","little, if any, effect"
same,increase in ability of Vero-grown virus to infect HAE cells,"HAE cultures; inhibitor present during virus production in Vero, green cells counted 48 hpi, vs DMSO",7 fold

# Source: patent US10758607B2, “Respiratory syncytial virus having cleavage-resistant G protein and related materials and methods” (The Research Institute at Nationwide Children's Hospital, priority 2015, dated 2020)
